Assay results: article PMC6753678, “Fueling Open Innovation for Malaria Transmission-Blocking Drugs: Hundreds of Molecules Targeting Early Parasite Mosquito Stages” (Frontiers in Microbiology, 2019)

Columns and labels:
[1] = test system: HepG2 cells; assay: HepG2 cytotoxicity assay; conditions: HepG2 cytotoxicity unified across screens; >25 set to 25.00
Method in brief: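 Cells are plated at 2,500 per well on compound-treated plates in MEM containing 10% fetal bovine serum and 1% NEAA, then incubated 48 h at 37°C.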

[2] = test system: P. falciparum late stage (stages IV-V) gametocytes; parameters: method as in Almela et al 2016; conditions: P. falciparum late stage gametocyte ATP assay, TCAMS screen; ref Almela et al 2016; read-out: Pf GCT ATP IC50; cited from earlier work
[3] = test system: P. falciparum late stage (stages IV-V) gametocytes; assay: P. falciparum late stage gametocyte ATP depletion assay (Pf GC-ATP); conditions: 1: YES; 0: NO; >10-fold selectivity over cytotoxicity

SMILES | Unified cytotox [1] | IC50 [2] | Is compound selective in assay? Pf GC-ATP active? [3]
CCc1c(CCNCCCCCCNCCc2ccc(OC)c(OC)c2C)ccc(OC)c1OC.Cl [TCMDC-132051] | 7.75 µM | 770 nM | 1 (1: YES)
CCc1c(CCNCCc2cccc(CCNCCc3ccc(OC)c(OC)c3CC)c2)ccc(OC)c1OC.Cl [TCMDC-132056] | 4.11 µM | 550 nM | 0 (0: NO)
CCc1c(CCNCCCC(C)CCNCCc2ccc(OC)c(OC)c2CC)ccc(OC)c1OC.Cl (stereo not drawn) [TCMDC-132065] | 6.00 µM | 450 nM | 1 (1: YES)
COc1cccc(CCc2c(CCNCCCCCCNCCc3ccccc3)ccc(OC)c2OC)c1.Cl [TCMDC-132105] | 7.70 µM | 180 nM | 1 (1: YES)
Cc1cc(-c2cccc(CNC3CCCC3)c2)ccc1S(=O)(=O)NCCN1CCCC1.O=C(O)C(F)(F)F [TCMDC-132279] | 7.50 µM | 1240 nM | 0 (0: NO)
O=C(O)C(F)(F)F.O=S(=O)(NCCN1CCCC1)c1cccc(-c2ccc(CNCc3ccc(F)cc3)cc2)c1 [TCMDC-132289] | 7.40 µM | 2690 nM | 0 (0: NO)
COc1ccc(CNCc2ccc(F)cc2)cc1-c1ccc(S(=O)(=O)NCCN2CCCC2)cc1.O=C(O)C(F)(F)F [TCMDC-132294] | 6.50 µM | 1210 nM | 0 (0: NO)
COc1ccc(CNCc2ccc(F)cc2)cc1-c1ccc(OC)c(S(=O)(=O)NCCN2CCCC2)c1.O=C(O)C(F)(F)F [TCMDC-132295] | 11.40 µM | 720 nM | 1 (1: YES)
COc1ccc(CNCCc2cccs2)cc1-c1cccc(S(=O)(=O)NCCN2CCCC2)c1.O=C(O)C(F)(F)F [TCMDC-132479] | 11.40 µM | 1680 nM | 0 (0: NO)
O=C(Nc1ccc(N2CCNCC2)cc1)c1ccn2ncc(-c3cccc(Cl)c3)c2n1 [TCMDC-132663] | 22.22 µM | 3500 nM | 0 (0: NO)
NCc1ccc(CNCc2cccc(-c3ccc(-c4nc5ccccc5[nH]4)cc3)c2)cc1.O=C(O)C(F)(F)F [TCMDC-132815] | 21.82 µM | 480 nM | 1 (1: YES)
O=C(O)C(F)(F)F.c1cc(CNCCN2CCNCC2)cc(-c2cccc(-c3nc4ccccc4[nH]3)c2)c1 [TCMDC-132859] | 19.30 µM | 710 nM | 1 (1: YES)
Fc1ccc2[nH]c(-c3cccc(-c4cccc(CNCCN5CCNCC5)c4)c3)nc2c1.O=C(O)C(F)(F)F [TCMDC-132860] | 19.63 µM | 740 nM | 1 (1: YES)
Fc1ccc2[nH]c(-c3cccc(-c4ccc(CNCCN5CCNCC5)cc4)c3)nc2c1.O=C(O)C(F)(F)F [TCMDC-132863] | 24.16 µM | 1450 nM | 1 (1: YES)
Cc1cccc2nc(-c3ccc(-c4cccc(CNCCN5CCNCC5)c4)cc3)[nH]c12 [TCMDC-132867] | 13.40 µM | 840 nM | 1 (1: YES)
Cc1cccc2nc(-c3cccc(-c4cccc(CNCCN5CCNCC5)c4)c3)[nH]c12.O=C(O)C(F)(F)F [TCMDC-132873] | 7.76 µM | 500 nM | 1 (1: YES)

SMILES | Unified cytotox [1] | IC50 [2] | Is compound selective in assay? Pf GC-ATP active? [3]
CN1CCN(c2nsc3ccc(-c4ccc(NC(=O)Nc5cc(C(F)(F)F)ccc5F)cc4)cc23)CC1.O=C(O)C(F)(F)F [TCMDC-133435] | 6.40 µM | 7520 nM | 0 (0: NO)
O=C(Nc1ccc(Cl)c(Cl)c1)Nc1ccccc1N1CCNCC1.O=C(O)C(F)(F)F [TCMDC-133727] | 11.20 µM | 7420 nM | 0 (0: NO)
NC1CCN(Cc2ccc(-c3ccc(-c4nc5cc(F)ccc5[nH]4)cc3)cc2)C1.O=C(O)C(F)(F)F (stereo not drawn) [TCMDC-133872] | 7.25 µM | 830 nM | 0 (0: NO)
O=C(O)C(F)(F)F.c1cc(CN2CCC(CCN3CCCCC3)CC2)cc(-c2cccc(-c3nc4ccccc4[nH]3)c2)c1 [TCMDC-133920] | 13.10 µM | 290 nM | 1 (1: YES)
Cc1cccc2nc(-c3ccc(-c4cccc(CN5CCC(CCN6CCCCC6)CC5)c4)s3)[nH]c12.O=C(O)C(F)(F)F [TCMDC-133923] | 3.87 µM | 460 nM | 0 (0: NO)
Cc1cccc2nc(-c3ccc(-c4ccc(CN5CCC(CCN6CCCCC6)CC5)cc4)cc3)[nH]c12.O=C(O)C(F)(F)F [TCMDC-133929] | 3.70 µM | 270 nM | 1 (1: YES)
Fc1ccc2[nH]c(-c3ccc(-c4ccc(CN5CCC(CCN6CCCCC6)CC5)cc4)s3)nc2c1.O=C(O)C(F)(F)F [TCMDC-133932] | 3.79 µM | 140 nM | 1 (1: YES)
COc1ccc(-c2cnn3ccc(Nc4cc(OC)c(OC)c(OC)c4)nc23)cc1OC [TCMDC-134383] | 12.90 µM | 1620 nM | 0 (0: NO)
CCc1ccc(CN2CCC(CNC(=O)c3cc(-c4cccc(F)c4)cs3)C2)cc1.O=C(O)C(F)(F)F (stereo not drawn) [TCMDC-134432] | 7.22 µM | 1260 nM | 0 (0: NO)
COc1ccccc1CCNc1nc(C)cc(N[C@@H](Cc2ccccc2)C(=O)NCc2cccc(F)c2)n1.O=C(O)C(F)(F)F [TCMDC-134893] | 6.30 µM | 5300 nM | 0 (0: NO)
CC(C)(C)OC(=O)NCc1ccc(Nc2nnc(-c3ccc(OCC(=O)NCc4ccc(C(C)(C)C)cc4)c([N+](=O)[O-])c3)o2)cc1 [TCMDC-134991] | 3.15 µM | 700 nM | 0 (0: NO)
CN1CCN(CC2(Nc3nccc(NCCc4cn(C)c5ccccc45)n3)CCCCC2)CC1 [TCMDC-135122] | 6.94 µM | 700 nM | 0 (0: NO)
COc1cc(NC(=O)c2sc(-c3ccc(Cl)cc3)cc2NC(=O)c2ccncc2)ccc1OCCN1CCCC1 [TCMDC-135398] | 3.23 µM | 150 nM | 1 (1: YES)
CCN(CC)CCCNc1nccc(N2CCc3ncnc(Nc4ccc(OCc5cccc(F)c5)c(Cl)c4)c3C2)n1 [TCMDC-135406] | 5.58 µM | 720 nM | 0 (0: NO)
COc1cc2ccccc2cc1OCCCN1CCN(CC(c2ccc(F)cc2)N2CCN(C(C)C)CC2)CC1.Cl (stereo not drawn) [TCMDC-135496] | 3.72 µM | 1250 nM | 0 (0: NO)
